This is an account of results in patent US20140107109A1, “AMINO-DIHYDROTHIAZINE AND AMINO-DIOXIDO DIHYDROTHIAZINE COMPOUNDS AS BETA-SECRETASE ANTAGONISTS AND METHODS OF USE” (Amgen Inc., priority 2012, published 2014).

Structures are written as SMILES. Read-outs that look alike come from different tables or passages of the source. Bounds are passed on as bounds.

Test [1] relates to Aβ40 in conditioned medium of cells stably expressing Amyloid Precursor Protein (APP). Description: In vitro BACE cell-based assay (HEK cell assay), Aβ40 sandwich ELISA. As to conditions: Homo sapiens, HEK293. An outline of the steps: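 APP-stably expressing cells (40K/well, grown 24 h in DMEM/10% FBS) were treated 24 h with compounds in 10-point dose response starting at 100 μM or 10 μM, 0.1% DMSO final. Secreted Aβ40 was measured by sandwich ELISA (pAb40 capture, biotinylated 6E10 detection, europium time-resolved fluorescence); IC50 from percent inhibition.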
Background: In an ELISA, binding on a coated surface is turned into a signal by an enzyme label.

For test [2], the target named is Beta Secretase enzyme (BACE1) (Homo sapiens, UniProt P56817). Description: In vitro enzymatic BACE FRET assay. The format is biochemical. As to conditions: read-out: BACE1 FRET assay IC50. The method in brief:
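BACE1 cleavage of a 50 nM fluorophore/quencher peptide FRET substrate ran for one hour in 0.05 M acetate pH 4.2, 10% DMSO, 100 uM genapol. Tris buffer raised pH to neutrality to stop the reaction before fluorescence was read (excitation 488 nm, […]).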

In another test the target is T1, Cathepsin D (Cat D) (Homo sapiens, UniProt P07339).
T1 construct: Recombinant Cat D was expressed in CHO cells; made in house; host or cells: CHO cells
T1 sequence (P07339 65-412, species assumed): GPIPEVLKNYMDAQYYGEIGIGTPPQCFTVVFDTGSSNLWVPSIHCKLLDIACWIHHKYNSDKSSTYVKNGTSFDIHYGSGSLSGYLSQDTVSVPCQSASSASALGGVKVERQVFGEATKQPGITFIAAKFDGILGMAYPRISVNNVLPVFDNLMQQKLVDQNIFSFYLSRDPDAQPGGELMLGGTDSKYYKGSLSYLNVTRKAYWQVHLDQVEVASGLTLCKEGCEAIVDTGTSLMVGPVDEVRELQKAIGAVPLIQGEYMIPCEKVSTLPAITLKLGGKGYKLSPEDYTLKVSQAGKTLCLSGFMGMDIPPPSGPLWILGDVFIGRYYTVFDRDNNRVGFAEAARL
Description: In vitro enzymatic Cathepsin D (Cat D) FRET assay. The format is biochemical. As to conditions: read-out: CatD IC50. An outline of the steps:
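Recombinant Cat D expressed in CHO cells, used at 9 nM and pre-incubated one hour with serially diluted inhibitor in DMSO. Peptide substrate carries a fluorophore and quencher flanking the cleavage site; reaction stopped with Tris buffer raising pH to neutrality, then fluorescence read.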

Beta Secretase enzyme (BACE1), sequence (P56817 46-501): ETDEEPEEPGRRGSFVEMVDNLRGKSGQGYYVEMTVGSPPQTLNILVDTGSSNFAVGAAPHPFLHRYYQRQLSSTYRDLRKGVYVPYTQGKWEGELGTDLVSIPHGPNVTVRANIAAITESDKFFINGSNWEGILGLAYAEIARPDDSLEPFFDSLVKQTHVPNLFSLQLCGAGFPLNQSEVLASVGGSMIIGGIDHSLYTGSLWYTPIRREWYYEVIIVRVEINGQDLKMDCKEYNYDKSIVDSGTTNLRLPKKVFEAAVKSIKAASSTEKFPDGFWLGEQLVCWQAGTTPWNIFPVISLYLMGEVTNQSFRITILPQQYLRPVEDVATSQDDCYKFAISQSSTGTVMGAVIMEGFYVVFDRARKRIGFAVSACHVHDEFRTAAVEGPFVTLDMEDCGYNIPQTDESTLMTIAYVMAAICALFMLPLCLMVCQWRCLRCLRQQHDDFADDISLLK

On to `COc1cnc2c(Nc3ccc(F)c([C@]4(C)CS(=O)(=O)C5(CC(F)(F)C5)C(N)=N4)c3)nccc2n1` [Example 128, (R)-9-amino-2,2-difluro-7-(2-fluoro-5-((2-methoxypyrido[3,4b]pyrazin-5-yl)amino)phenyl)-7-methyl-5-thia-8-azaspiro[3.5]non-8-ene 5,5-dioxide], for which the IC50 (in general, the concentration that gives 50% inhibition) in test [1] (average IC50, cell assay) was found to be 199 nM; in test [2] (average IC50, enzyme assay), 25.9 nM; at Cathepsin D (Cat D), 330 µM.

Turning to `C[C@]1(c2cc(NC(=O)c3ccc(Cl)cn3)ccc2F)N=C(N)C2(CCC2)S(=O)(=O)[C@@H]1F` [Example 131, N-(3-((6S,7R)-9-amino-6-fluoro-7-methyl-5,5-dioxido-5-thia-8-azaspiro[3.5]non-8-en-7-yl)-4-fluorophenyl)-5-chloropicolinamide], the IC50 in test [1] was 9.01 nM; in test [2], 1.6 nM; on Cathepsin D (Cat D), 162 µM.

Turning to `Cc1cc(OC(F)F)cnc1C(=O)Nc1ccc(F)c([C@@]2(C)N=C(N)C3(CCC3)S(=O)(=O)[C@@H]2F)c1` [Example 132, N-(3-((6S,7R)-9-amino-6-fluoro-7-methyl-5,5-dioxido-5-thia-8-azaspiro[3.5]non-8-en-7-yl)-4-fluorophenyl)-5-(difluoromethoxy)-3-methylpicolinamide], the figures for the IC50 (in test [1]; in test [2]; on Cathepsin D (Cat D)) were 5.8 nM, 2.97 nM and 61.8 µM, respectively.

As for `Cc1cc(C(F)F)cnc1C(=O)Nc1ccc(F)c([C@@]2(C)N=C(N)C3(CCC3)S(=O)(=O)[C@@H]2F)c1` [Example 136, N-(3-((6S,7R)-9-amino-6-fluoro-7-methyl-5,5-dioxido-5-thia-8-azaspiro[3.5]non-8-en-7-yl)-4-fluorophenyl)-5-(difluoromethyl)-3-methylpicolinamide], the results for the IC50 (in test [1]; in test [2]; on Cathepsin D (Cat D)) were 4.9 nM, 2.1 nM and 236 µM, respectively.

For `COc1cnc(C(=O)Nc2ccc(F)c([C@@]3(C)N=C(N)C4(CCC4)S(=O)(=O)[C@@H]3F)c2)c(C)c1` [Example 137, N-(3-((6S,7R)-9-amino-6-fluoro-7-methyl-5,5-dioxido-5-thia-8-azaspiro[3.5]non-8-en-7-yl)-4-fluorophenyl)-5-methoxy-3-methylpicolinamide], the IC50 turned out to be 6.4 nM in test [1], 3.63 nM in test [2] and 81.3 µM on Cathepsin D (Cat D).

Consider `COc1cc(Cl)cnc1C(=O)Nc1ccc(F)c([C@@]2(C)N=C(N)C3(CCC3)S(=O)(=O)[C@@H]2F)c1` [Example 139, N-(3-((6S,7R)-9-amino-6-fluoro-7-methyl-5,5-dioxido-5-thia-8-azaspiro[3.5]non-8-en-7-yl)-4-fluorophenyl)-5-chloro-3-methoxypicolinamide], for which the IC50 is 11.8 nM in test [1], 3.8 nM in test [2] and 408 µM on Cathepsin D (Cat D).

Take `C[C@]1(c2cc(NC(=O)c3cnc(C(F)F)cn3)ccc2F)N=C(N)C2(CCC2)S(=O)(=O)[C@@H]1F` [Example 140, N-(3-((6S,7R)-9-amino-6-fluoro-7-methyl-5,5-dioxido-5-thia-8-azaspiro[3.5]non-8-en-7-yl)-4-fluorophenyl)-5-(difluoromethyl)pyrazine-2-carboxamide]: the IC50 in test [1] is 14.6 nM; in test [2] it was 8.8 nM; on Cathepsin D (Cat D) it was greater than 400 µM.

In the case of `Cc1cc(OC(F)F)cnc1C(=O)Nc1ccc(F)c([C@]2(C)CS(=O)(=O)C(C)(C)C(N)=N2)c1` [Example 144, (R)—N-(3-(5-amino-3,6,6-trimethyl-1,1-dioxido-3,6-dihydro-2H-1,4-thiazin-3-yl)-4-fluorophenyl)-5-(difluoromethoxy)-3-methylpicolinamide], the IC50 amounted to 1.6 nM in test [1], 0.6 nM in test [2] and 96.7 µM on Cathepsin D (Cat D).

Consider `Cc1c(CNc2cc([C@]3(C)CS(=O)(=O)C(C)(C)C(N)=N3)c(F)cn2)nc2ccc(Cl)cn12` [Example 145, (R)-5-amino-3-(2-(((6-chloro-3-methylimidazo[1,2-a]pyridin-2-yl)methyl)amino)-5-fluoropyridin-4-yl)-3,6,6-trimethyl-3,6-dihydro-2H-1,4-thiazine-1,1-dioxide], for which the IC50 in test [1] (average IC50, HEK cell assay) amounted to 412 nM; in test [2] (average IC50, enzyme assay) it was 440 nM; at Cathepsin D (Cat D), 102 µM.

Regarding `C[C@@]1(c2cc(Br)ncc2F)CS(=O)(=O)C2(CCC2)C(N)=N1` [Example 147, (R)-9-amino-7-(2-bromo-5-fluoropyridin-4-yl)-7-methyl-5-thia-8-azaspiro[3.5]non-8-ene 5,5-dioxide], the IC50 is greater than 15600 nM in test [1] (average IC50, cell assay); 17000 nM in test [2] (average IC50, enzyme assay); 43.5 µM at Cathepsin D (Cat D).

Take `Cc1cc(OC(F)F)cnc1C(=O)Nc1ccc(F)c([C@]2(CF)CS(=O)(=O)C(C)(C)C(N)=N2)c1` [Example 148, (S)—N-(3-(5-amino-3-(fluoromethyl)-6,6-dimethyl-1,1-dioxido-3,6-dihydro-2H-1,4-thiazin-3-yl)-4-fluorophenyl)-5-(difluoromethoxy)-3-methylpicolinamide]: the IC50 in test [1] was determined as 9.1 nM; in test [2] it was 1.63 nM; on Cathepsin D (Cat D) it was 213 µM.

Turning to `Cc1cc(OCCF)cnc1C(=O)Nc1ccc(F)c([C@]2(CF)CS(=O)(=O)C(C)(C)C(N)=N2)c1` [Example 149, (S)—N-(3-(5-amino-3-(fluoromethyl)-6,6-dimethyl-1,1-dioxido-3,6-dihydro-2H-1,4-thiazin-3-yl)-4-fluorophenyl)-5-(2-fluoroethoxy)-3-methylpicolinamide], the IC50 turned out to be 65.1 nM in test [1] (average IC50, cell assay); 2.71 nM in test [2] (average IC50, enzyme assay); 855 µM on Cathepsin D (Cat D).

As for `Cc1cc(OC2COC2)cnc1C(=O)Nc1ccc(F)c([C@]2(CF)CS(=O)(=O)C(C)(C)C(N)=N2)c1` [Example 150, (S)—N-(3-(5-amino-3-(fluoromethyl)-6,6-dimethyl-1,1-dioxido-3,6-dihydro-2H-1,4-thiazin-3-yl)-4-fluorophenyl)-3-methyl-5-(oxetan-3-yloxy)picolinamide], the IC50 in test [1] (average IC50, cell assay) was determined as 528 nM; in test [2] (average IC50, enzyme assay), 44.5 nM; at Cathepsin D (Cat D), 622 µM.

On to `Cc1cc(OCC2CCC2)cnc1C(=O)Nc1ccc(F)c([C@]2(CF)CS(=O)(=O)C(C)(C)C(N)=N2)c1` [Example 151, (S)—N-(3-(5-amino-3-(fluoromethyl)-6,6-dimethyl-1,1-dioxido-3,6-dihydro-2H-1,4-thiazin-3-yl)-4-fluorophenyl)-5-(cyclobutylmethoxy)-3-methylpicolinamide], for which the IC50 in test [1] amounted to 100 nM; in test [2], 1.7 nM; on Cathepsin D (Cat D), 232 µM.

For the molecule `Cc1c(CNc2ccc(F)c([C@]3(C)CS(=O)(=O)C(C)(C)C(N)=N3)c2)nc2ccc(Cl)cn12` [Example 152, (R)-5-amino-3-(5-(((6-chloro-3-methylimidazo[1,2-a]pyridin-2-yl)methyl)amino)-2-fluorophenyl)-3,6,6-trimethyl-3,6-dihydro-2H-1,4-thiazine 1,1-dioxide], the IC50 in test [1] (average IC50, cell assay) is 302 nM; in test [2] (average IC50, enzyme assay) it was 2940 nM; on Cathepsin D (Cat D), 1460 µM.

For the molecule `CC1(C)C(N)=N[C@](C)(c2cc(C(=O)Nc3ccc(Cl)cc3)ccc2F)CS1(=O)=O` [Example 153, (R)-3-(5-amino-3,6,6-trimethyl-1,1-dioxido-3,6-dihydro-2H-1,4-thiazin-3-yl)-N-(4-chlorophenyl)-4-fluorobenzamide], the IC50 in test [1] (average IC50, cell assay) is 3210 nM; in test [2] (average IC50, enzyme assay), 4680 nM; on Cathepsin D (Cat D) it was 237 µM.

For the molecule `C[C@@]1(c2cccc(Br)c2)CS(=O)(=O)C2(CCC2)C(N)=N1` [Example 154, (R)-9-amino-7-(3-bromophenyl)-7-methyl-5-thia-8-azaspiro[3.5]non-8-ene 5,5-dioxide], the IC50 in test [1] (average IC50, cell assay) came out at 2390 nM; in test [2] (average IC50, enzyme assay) it was 6060 nM; at Cathepsin D (Cat D), 31.2 µM.

As for `COc1cnc(C(=O)Nc2ccc(F)c([C@]3(CF)CS(=O)(=O)C(C)(C)C(N)=N3)c2)c(OC)n1` [Example 155, (S)—N-(3-(5-amino-3-(fluoromethyl)-6,6-dimethyl-1,1-dioxido-3,6-dihydro-2H-1,4-thiazin-3-yl)-4-fluorophenyl)-3,5-dimethoxypyrazine-2-carboxamide], the 50% inhibitory concentration (IC50) in test [1] (average IC50, cell assay) is 35.1 nM; in test [2] (average IC50, enzyme assay), 4.3 nM; on Cathepsin D (Cat D), 470 µM.

Take `CC1(C)C(N)=N[C@](CF)(c2cc(NC(=O)c3cnc(OCC4CC4)cn3)ccc2F)CS1(=O)=O` [Example 156, (S)—N-(3-(5-amino-3-(fluoromethyl)-6,6-dimethyl-1,1-dioxido-3,6-dihydro-2H-1,4-thiazin-3-yl)-4-fluorophenyl)-5-(cyclopropylmethoxy)pyrazine-2-carboxamide]: the IC50 in test [1] (average IC50, cell assay) is 4.9 nM; in test [2] (average IC50, enzyme assay), 0.5 nM; at Cathepsin D (Cat D) it was 835 µM.

On to `CC1(C)C(N)=N[C@](CF)(c2cc(Nc3ncc(F)c4cc(C#N)cnc34)ccc2F)CS1(=O)=O` [Example 157, (S)-8-((3-(5-amino-3-(fluoromethyl)-6,6-dimethyl-1,1-dioxido-3,6-dihydro-2H-1,4-thiazin-3-yl)-4-fluorophenyl)amino)-5-fluoro-1,7-naphthyridine-3-carbonitrile], for which the half-maximal inhibitory concentration (IC50) is 27.1 nM in test [1] (average IC50, cell assay); 0.56 nM in test [2] (average IC50, enzyme assay); greater than 14.8 µM at Cathepsin D (Cat D).
